Read-outs that look alike come from different tables or passages of the source.
Key:
Type in all cases: cell-based, human
[1] = test system: TNF-alpha production by PBMC; experiment: TNF-alpha assay, LPS-stimulated PBMC, sandwich ELISA
Method: (§1) All reagents were dissolved in 0.5 ml dimethylsulfoxide (hereinafter referred as DMSO) and further diluted in culture medium before use for the following in vitro experiments. The commercially available culture medium consisted of RPMI-1640+10% foetal calf serum (FCS). Peripheral blood mononuclear cells (herein referred as PBMC), in response to stimulation by lipopolysaccharide (LPS), a gram-negative bacterial endotoxin, produce various […], in particular human TNF-alpha and II-1 beta. The inhibition of the activation of PBMC can be measured by the level of suppression of the production of TNF-alpha or IL-1 beta by PBMC in response to stimulation by LPS. Such inhibition measurement was performed as follows: PBMC were isolated from heparinized peripheral blood (Buffy coat) by density gradient centrifugation. LPS is then added to the PMBC suspension in complete medium (10^6 cells/ml) at a final concentration of 1 μg/ml. The compound to be tested was added at different dilution levels, and the cells were incubated at 37° C. for 72 hours. The supernatants were collected, and TNF-alpha or II-1 beta concentrations were measured with respectively an anti-TNF antibody or an anti-IL-1 beta antibody in a sandwich ELISA. The percent inhibition was calculated as: % inhibition=(pg/ml in sample−pg/ml min.)/(pg/ml max.−pg/ml min.)−1 wherein: min.: pg/ml in culture medium without test compound, and • max.: pg/ml in culture medium+LPS without test compound.

[2] = test system: peripheral blood mononuclear cells (PBMC); experiment: Mixed lymphocyte reaction (MLR) test
Method: All reagents were dissolved in 0.5 ml dimethylsulfoxide (hereinafter referred as DMSO) and further diluted in culture medium before use for the following in vitro experiments. The commercially available culture medium consisted of RPMI-1640+10% foetal calf serum (FCS). Peripheral blood mononuclear cells (hereinafter referred as PBMC) were isolated from heparinized peripheral blood by density gradient centrifugation over Lymphoprep (Nycomed, Maorstua, Norway). Allogeneic PBMC or […]-Barr Virus-transformed human B cells [commercially available under the trade name RPMI1788 (ATCC name CCL156)] which strongly express B7-1 and B7-2 antigens were used as stimulator cells after irradiation with 30 Gy. MLR was performed in triplicate wells. After 5 days incubation at 37° C., 1 μCi [^3H]-thymidine was added to each cup. After a further 16 hours incubation, cells were harvested and counted in a β-counter. Inhibition of proliferation by a compound (drug) described in some of the previous examples was counted using the formula: [formula] wherein cpm is the thymidine count per minute. TNF-Alpha and IL-1 Beta Assays

[3] = test system: IL-1 beta production by PBMC; experiment: IL-1 beta assay, LPS-stimulated PBMC, sandwich ELISA
Method: as §1

[4] = Table 7, same conditions as example 26, read-out: TNFα IC50
[5] = Table 7, same conditions as example 26
[6] = Table 7, same conditions as example 26, read-out: IL1β IC50
[7] = Table 2, LPS 1 μg/ml, 72 hours, read-out: TNF IC50
[8] = Table 2, LPS 1 μg/ml, 72 hours, read-out: IL-1 IC50
[9] = Table 2, [3H]-thymidine incorporation after 5 days incubation

SMILES	IC50 [1, 4] [µM]	IC50 [2, 5] [µM]	IC50 [3, 6] [µM]	IC50 [1, 7] [µM]	IC50 [3, 8] [µM]	IC50 [2, 9] [µM]
Cn1c(=O)n(CCN2CCOCC2)c(=O)c2nc(-c3ccccc3)c(Cl)nc21 [Example 74, 7-chloro-1-methyl-3-(2-morpholinoethyl)-6-phenyl-lumazine]	2.6	4.2	0.7			
Cn1c(=O)n(CCO)c(=O)c2nc(-c3ccccc3)c(Cl)nc21 [Example 57, 7-chloro-3-(2-hydroxyethyl)-1-methyl-6-phenyl-lumazine]	0.4	5	0.7			
CCCNC(=O)CCCn1c(=O)c2nc(-c3ccccc3)c(Cl)nc2n(C)c1=O [Example 92, 7-chloro-1-methyl-6-phenyl-3-(N-propyl 4-butyramido)-lumazine]	5.4	3.4	1.1			
CCn1c(=O)n(CCCC(=O)O)c(=O)c2nc(-c3ccccc3)c(Cl)nc21 [Example 86, 7-chloro-3-(n-butyric acid)-1-ethyl-6-phenyl-lumazine]	8.4	4.6	2.5			
CCOC(=O)CCCn1c(=O)c2nc(-c3ccccc3)c(Cl)nc2n(CC)c1=O [Example 68, 7-chloro-1-ethyl-3-(ethyl butyrate)-6-phenyl-lumazine]	3.1	6.8	0.6			
Cn1c(=O)n(CCCC#N)c(=O)c2nc(-c3ccccc3)c(Cl)nc21 [Example 67, 3-butyronitrile-7-chloro-1-methyl-6-phenyl-lumazine]	0.7	4.8	0.6			
CCCCOC(=O)NCCn1c(=O)c2nc(-c3ccccc3)c(Cl)nc2n(C)c1=O [Example 75, 3-(2-butyloxycarbonyl-aminoethyl)-7-chloro-1-methyl-6-phenyl-lumazine]	3.5	5.1	0.7			
Cn1c(=O)[nH]c(=O)c2nc(-c3ccc(Cl)cc3)c(Cl)nc21 [Example 20, 1-methyl-6-(4′-chlorophenyl)-7-chloro-lumazine]				3.8	0.4	
CCOC(=O)CCCn1c(=O)c2nc(-c3ccc(OC)c(OC)c3)c(Cl)nc2n(C)c1=O [Example 63, 7-chloro-6-(3,4-dimethoxyphenyl)-3-(ethyl butyrate)-1-methyl-lumazine]	0.6	5.7	0.9			
CCOC(=O)CCCCn1c(=O)c2nc(-c3ccccc3)c(Cl)nc2n(C)c1=O [Example 72, 7-chloro-3-(ethyl pentanoate)-1-methyl-6-phenyl-lumazine]	3.4	3.5	0.6			
Cn1c(=O)n(Cc2ccccc2)c(=O)c2nc(-c3ccccc3)c(Cl)nc21 [Example 59, 7-chloro-3-benzyl-1-methyl-6-phenyl-lumazine]	5.3	5	0.5			
Cn1c(=O)n(CCN2CCCCC2)c(=O)c2nc(-c3ccccc3)c(Cl)nc21 [Example 77, 7-chloro-1-methyl-6-phenyl-3-(2-piperidinoethyl)-lumazine]	3.7	3.4	0.7			
Cn1c(=O)c2nc(-c3ccccc3)c(Cl)nc2n(CCc2ccccc2)c1=O [Example 60, 7-chloro-1-(2-phenylethyl)-3-methyl-6-phenyl-lumazine]	5.8	3.5	4.1			
CCOC(=O)CCCn1c(=O)c2nc(-c3ccc(OC)cc3)c(F)nc2n(C)c1=O [Example 83, 3-(ethyl butyrate)-7-fluoro-1-methyl-6-(4-methoxyphenyl)-lumazine]	4.9	4.5	6.4			
Cn1c(=O)n(CCCC(=O)OC(C)(C)C)c(=O)c2nc(-c3ccccc3)c(Cl)nc21 [Example 89, 7-chloro-3-(t-butyl butyrate)-1-methyl-6-phenyl-lumazine]	5.6	4.2	2.1			
Cn1c(=O)n(CCN2CCCC2)c(=O)c2nc(-c3ccccc3)c(Cl)nc21 [Example 78, 7-chloro-1-methyl-6-phenyl-3-(2-pyrrolidinoethyl)-lumazine]	7.4	4.4	0.8			
CCOC(=O)CCCn1c(=O)c2nc(-c3ccccc3)c(Br)nc2n(C)c1=O [Example 70, 7-bromo-3-(ethyl butyrate)-1-methyl-6-phenyl-lumazine]	5.5	5	3.5			

SMILES	IC50 [1, 4] [µM]	IC50 [2, 5] [µM]	IC50 [3, 6] [µM]	IC50 [1, 7] [µM]	IC50 [3, 8] [µM]	IC50 [2, 9] [µM]
CCOC(=O)CCCn1c(=O)c2nc(-c3ccccc3)c(Cl)nc2n(-c2ccccc2)c1=O [Example 65, 7-chloro-1,6-diphenyl-3-(ethyl butyrate)-lumazine]	0.8	3.8	0.5			
O=c1[nH]c(=O)n(Cc2ccccc2)c2nc(Cl)c(-c3ccccc3)nc12 [Example 53, 7-chloro-1-benzyl-6-phenyl-lumazine]	4.5	4.4	1.2			
Cn1c(=O)[nH]c(=O)c2nc(-c3ccccc3)c(Cl)nc21 [Example 14, 1-methyl-6-phenyl-7-chloro-lumazine]					0.35	4.1
CCOC(=O)CCCn1c(=O)c2nc(-c3ccc(OC)cc3)c(Br)nc2n(C)c1=O [Example 80, 7-bromo-3-(ethylbutyrate)-1-methyl-6-(4-methoxyphenyl)-lumazine]	2.1	5.6	6.4			
O=c1[nH]c(=O)n(Cc2ccccc2)c2nc(Cl)c(-c3ccccc3)nc12 [Example 18, 1-benzyl-6-phenyl-7-chloro-lumazine]				4.5		4.4
Cn1c(=O)c2nc(-c3ccc(O)cc3)c(Br)nc2n(C)c1=O [Example 84, 7-bromo-1,3-dimethyl-6-(4-hydroxyphenyl)-lumazine]	0.9	4.1	3.9			
CCOC(=O)CCCn1c(=O)c2nc(-c3ccc(OC)c(OC)c3)c(Br)nc2n(C)c1=O [Example 79, 7-bromo-6-(3,4-dimethoxyphenyl)-3-(ethylbutyrate)-1-methyl-lumazine]	0.7	4.7	0.2			
CCOC(=O)Cn1c(=O)c2nc(-c3ccccc3)c(Cl)nc2n(C)c1=O [Example 71, 7-chloro-3-(ethyl acetate)-1-methyl-6-phenyl-lumazine]	3.4	2.8	0.6			
COc1ccc(-c2nc3c(=O)n(CCCC(=O)OC(C)C)c(=O)n(C)c3nc2Br)cc1OC [Example 88, 7-bromo-6-(3,4-dimethoxyphenyl)-3-(isopropyl butyrate)-1-methyl-lumazine]	0.7	4.7	7.5			
Cn1c(=O)n(CCCC(N)=O)c(=O)c2nc(-c3ccccc3)c(Cl)nc21 [Example 90, 3-(4-butyramido)-7-chloro-1-methyl6-phenyl-lumazine]	4.9	3.9	1.6			
Cn1c(=O)[nH]c2nc(Cl)c(-c3ccccc3)nc2c1=O [Example 6, 3-methyl-6-phenyl-7-chloro-lumazine]				3	0.4	
CCOC(=O)CCCn1c(=O)n(C)c(=O)c2nc(-c3ccccc3)c(Cl)nc21 [Example 56, 7-chloro-1-(ethyl butyrate)-3-methyl-6-phenyl-lumazine]	0.5	4.9	0.6			
Cc1ccc(-c2nc3c(=O)[nH]c(=O)n(C)c3nc2Cl)cc1 [Example 52, 7-chloro-1-methyl-6-(4-methylphenyl)-lumazine]	1.1	3.5				
COc1ccc(-c2nc3c(=O)[nH]c(=O)n(C)c3nc2Cl)cc1OC [Example 19, 1-methyl-6-(3′,4′-dimethoxyphenyl)-7-chloro-lumazine]				1.1		5.1
Cc1ccc(-c2nc3c(=O)[nH]c(=O)n(C)c3nc2Cl)cc1 [Example 16, 1-methyl-6-(4′-methylphenyl)-7-chloro-lumazine]				1.1		3.6
Cn1c(=O)[nH]c(=O)c2nc(-c3ccc(Cl)cc3)c(Cl)nc21 [Example 54, 7-chloro-6-(4-chlorophenyl)-1-methyl-lumazine]	3.8		0.5			
